Usually Ki stands for a measure of affinity in units of concentration, obtained from inhibition or displacement. As a reminder, the EC50 is the concentration giving half of the maximal effect. Low readings indicate greater potency, high ones weaker potency.

Results on 25 compounds are retold here after US20120259123A1, “AMINOPYRIDINE COMPOUND” (UBE INDUSTRIES, LTD., priority 2009, published 2012).

The structures appear in SMILES notation. Where a name gives a salt, the structure may show the parent alone.

Assay [1] concerns the target T1, human EP2 receptor (Homo sapiens, UniProt P43116).
T1 construct: purchased Euroscreen S.A. ES-562-M; host or cells: HEK293 cells
In words: Measurement of EP2 receptor binding affinity ([3H]PGE2 displacement). Particulars: read-out: Ki value of EP2 receptor binding affinity. Here is the method: (§1) Measurement of EP2 receptor binding affinity was carried out according to the method of Abramovitz et al. (Biochimica et Biophysica Acta, 1483, 285 (2000)). […] The membrane fraction was recovered on glass fiber filter paper (GF/B, available from Whatman PLC) using a cell harvester […], available from Brandel Inc.), and after washing with a buffer solution (10 mM MES-KOH (pH 6.0), 10 mM MgCl2), radioactivity was measured with a liquid scintillation analyzer (2000CA, available from Packard). […] The dissociation constant (Kd value) was calculated by Scatchard analysis.

Assay [2] has as its target T1, human EP2 receptor. In words: Measurement of EP2 agonist activity (cAMP amount in cells). The class given is cell-based. As to conditions: HEK 293 cells expressing human EP2 receptor, cAMP increase, 30 minutes. Here is the method: Measurement of EP2 agonist activity was carried out according to the method of Wilson et al. (European Journal of Pharmacology, 501, 49 (2004)). […] On the next day, the medium was replaced with serum-free MEM medium containing 3-isobutyl-1-methylxanthine (final concentration: 500 μM) and after culturing for 30 minutes, a test compound dissolved in dimethylsulfoxide was added and the medium was allowed to stand in a carbon dioxide gas incubator. After 30 minutes, an amount of cAMP in the cells was measured with a cAMP Biotrak EIA System kit (available from GE Healthcare Bioscience).

For assay [3], the target named is T2, human EP1 receptor (Homo sapiens, UniProt P34995).
T2 sequence (P34995 1-402): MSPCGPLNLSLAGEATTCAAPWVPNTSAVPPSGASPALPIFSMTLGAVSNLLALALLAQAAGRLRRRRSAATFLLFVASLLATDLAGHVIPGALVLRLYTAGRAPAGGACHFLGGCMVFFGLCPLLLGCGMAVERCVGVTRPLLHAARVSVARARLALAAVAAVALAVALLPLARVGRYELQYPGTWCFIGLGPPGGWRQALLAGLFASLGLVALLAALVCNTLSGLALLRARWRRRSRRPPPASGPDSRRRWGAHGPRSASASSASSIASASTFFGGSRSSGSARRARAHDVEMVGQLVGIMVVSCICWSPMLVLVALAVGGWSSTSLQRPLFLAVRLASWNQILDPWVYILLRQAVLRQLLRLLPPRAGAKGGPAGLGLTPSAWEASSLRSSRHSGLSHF
In words: Measurement of EP1 receptor binding affinity ([3H]PGE2 displacement). Particulars: membrane fraction of Chem-1 cells expressing human EP1 receptor, [3H]PGE2 10 nM. The method, then:
as §1, with “EP1” for “EP2”, “PLC) pretreated with 0.3% polyethyleneimine by” for “PLC)”

T1 sequence (P43116 whole entry): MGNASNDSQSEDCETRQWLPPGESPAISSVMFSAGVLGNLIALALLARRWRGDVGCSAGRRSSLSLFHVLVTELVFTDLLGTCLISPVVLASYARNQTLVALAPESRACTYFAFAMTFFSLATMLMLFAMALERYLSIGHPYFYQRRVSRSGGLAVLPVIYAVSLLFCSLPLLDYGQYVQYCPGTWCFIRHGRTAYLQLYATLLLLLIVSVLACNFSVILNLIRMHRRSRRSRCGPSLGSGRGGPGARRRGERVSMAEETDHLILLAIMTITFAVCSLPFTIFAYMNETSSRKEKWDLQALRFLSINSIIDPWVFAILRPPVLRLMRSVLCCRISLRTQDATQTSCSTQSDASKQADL

`CCCCC(C)(C)c1ccc(CN(Cc2cccc(NCC(=O)O)n2)S(=O)(=O)c2cccnc2)cc1` [Example 46, (6-{[4-(1,1-Dimethylpentyl)benzyl](pyridin-3-ylsulfonyl)aminomethyl}pyridin-2-ylamino)acetic acid]: in assay [1], the inhibitory constant (Ki) came to 3.3 nM.
The compound `CCCCC(C)c1ccc(CN(Cc2cccc(NCC(=O)O)n2)S(=O)(=O)c2ccccn2)cc1` (stereo not drawn) [Example 40, (6-{[4-(1-Methylpentyl)benzyl](pyridin-2-ylsulfonyl)aminomethyl}pyridin-2-ylamino)-acetic acid] had a concentration for a half-maximal effect (EC50) in assay [2] of 2.8 nM. In addition, the Ki in assay [1] came to 5.3 nM.
For `CCCCC(C)(C)c1ccc(CN(Cc2cccc(NCC(=O)O)n2)S(=O)(=O)c2ccncc2)cc1` [Example 43, (6-{[4-(1,1-Dimethylpentyl)benzyl](pyridin-4-ylsulfonyl)aminomethyl}pyridin-2-ylamino)acetic acid], the Ki in assay [1] came out at 3.6 nM.
For `CCC(C)(C)c1ccc(CN(Cc2cccc(NCC(=O)O)n2)S(=O)(=O)c2ccccn2)s1` [Example 4, {6-[(5-tert-Pentylthiophen-2-ylmethyl)(pyridin-2-ylsulfonyl)aminomethyl]pyridin-2-ylamino}acetic acid], the EC50 in assay [2] stood at 7 nM. For the same compound, in assay [1], the Ki was determined as 3.4 nM.
For the compound `CCC(C)(C)c1ccc(CN(Cc2cccc(NCC(=O)O)n2)S(=O)(=O)c2ccccn2)cc1` [Example 28, {6-[(4-tert-Pentylbenzyl)(pyridin-2-ylsulfonyl)aminomethyl]pyridin-2-ylamino}acetic acid hydrochloride], in assay [2], the EC50 was 6.4 nM. Besides, the Ki in assay [1] is 9.8 nM.
In the case of `CC(C)(C)c1ccc(CN(Cc2cccc(NCC(=O)O)n2)S(=O)(=O)c2ccccn2)cc1` [Example 23, {6-[(4-tert-Butylbenzyl)(pyridin-2-ylsulfonyl)aminomethyl]pyridin-2-ylamino}acetic acid hydrochloride], the half-maximal effective concentration (EC50) in assay [2] is 2.7 nM.
Take `CCCCC[C@H](O)/C=C/[C@H]1[C@H](O)CC(=O)[C@@H]1C/C=C\CCCC(=O)O` [PGE2, Prostaglandin E2, reference compound]: the inhibition constant Ki in assay [3] was 9 nM.
Turning to `CCCCC(C)(C)c1ccc(CN(Cc2cccc(NCC(=O)O)n2)S(=O)(=O)c2ccccn2)c(F)c1` [Example 55, (6-{[2-Fluoro-4-(1,1-dimethylpentyl)benzyl](pyridin-2-ylsulfonyl)aminomethyl}pyridin-2-ylamino)acetic acid], the half-maximal effective concentration (EC50) in assay [2] was found to be 7 nM. Besides, in assay [1], the Ki worked out at 2.1 nM.
In assay [2], `CCCCC(C)(C)c1ccc(CN(Cc2cccc(NCC(=O)O)n2)S(=O)(=O)c2cccc(F)c2)cc1` [Example 60, (6-{(3-Fluorobenzenesulfonyl)[4-(1,1-dimethylpentyl)benzyl]aminomethyl}pyridin-2-ylamino)acetic acid] returned a concentration for a half-maximal effect (EC50) of 5.5 nM.
Regarding `CCC1(c2ccc(CN(Cc3cccc(NCC(=O)O)n3)S(=O)(=O)c3cccnc3)cc2)CC1` [Example 7, (6-{[4-(1-Ethylcyclopropyl)benzyl](pyridin-3-ylsulfonyl)aminomethyl}pyridin-2-ylamino)acetic acid], the concentration giving a half-maximal response (EC50) in assay [2] is 4.5 nM. The Ki in assay [1] was 8.3 nM.
`CCCC=C(C)c1ccc(CN(Cc2cccc(NCC(=O)O)n2)S(=O)(=O)c2ccccn2)cc1` [Example 24, (6-{[4-(1-Methyl-1-pentenyl)benzyl](pyridin-2-ylsulfonyl)aminomethyl}pyridin-2-ylamino)acetic acid] registered a concentration for a half-maximal effect (EC50) in assay [2] of 4.5 nM.
For the compound `CC(C)(C)c1ccc(CN(Cc2cccc(NCC(=O)O)n2)S(=O)(=O)c2ccccc2)cc1` [Example 21, {6-[(Benzenesulfonyl)(4-tert-butylbenzyl)aminomethyl]pyridin-2-ylamino}acetic acid hydrochloride], a half-maximal effect in assay [2] (EC50) was put at 4.3 nM.
Still for that read-out and setting: then `CC(C)(C)Cc1ccc(CN(Cc2cccc(NCC(=O)O)n2)S(=O)(=O)c2ccccn2)cc1` [Example 29, {6-[(4-Neopentylbenzyl)(pyridin-2-ylsulfonyl)aminomethyl]pyridin-2-ylamino}acetic acid hydrochloride], with 5 nM.
Same read-out and setting: the value for `CCC1(c2ccc(CN(Cc3cccc(NCC(=O)O)n3)S(=O)(=O)c3ccccn3)cc2)CC1` [Example 6, (6-{[4-(1-Ethylcyclopropyl)benzyl](pyridin-2-ylsulfonyl)aminomethyl}pyridin-2-ylamino)acetic acid] was 5.4 nM.
`CCCCC1(c2ccc(CN(Cc3cccc(NCC(=O)O)n3)S(=O)(=O)c3ccncc3)cc2)CC1` [Example 16, (6-{[4-(1-Butylcyclopropyl)benzyl](pyridin-4-ylsulfonyl)aminomethyl}pyridin-2-ylamino)acetic acid]: the EC50 in assay [2] was determined as 6.3 nM. Also, in assay [1], the inhibitory constant (Ki) was 6.1 nM.
In turn, `CC(C)(C)c1ccc(CN(Cc2cccc(NCC(=O)O)n2)S(=O)(=O)c2cccnc2)cc1` [Example 35, {6-[(4-tert-Butylbenzyl)(pyridin-3-ylsulfonyl)aminomethyl]pyridin-2-ylamino}acetic acid hydrochloride] displayed an EC50 in assay [2] of 2.8 nM.
`CC(C)(C)c1ccc(CN(Cc2cccc(NCC(=O)O)n2)S(=O)(=O)c2ccc(Cl)cc2)cc1` [Example 33, {6-[(4-tert-Butylbenzyl)(4-chlorobenzenesulfonyl)aminomethyl]pyridin-2-ylamino}-acetic acid hydrochloride] displayed an EC50 in assay [2] of 4.4 nM. Also, the Ki in assay [1] was 4.4 nM.
For the compound `CC(C)(C)c1ccc(CN(Cc2cccc(NCC(=O)O)n2)S(=O)(=O)c2ccc(F)cc2)cc1` [Example 30, {6-[(4-tert-Butylbenzyl)(4-fluorobenzenesulfonyl)aminomethyl]pyridin-2-ylamino}-acetic acid hydrochloride], the EC50 in assay [2] is 2.7 nM. In assay [1], the Ki is 8.3 nM.
The matching figures for `CCCCC1(c2ccc(CN(Cc3cccc(NCC(=O)O)n3)S(=O)(=O)c3cccnc3)cc2)CC1` [Example 10, 6-{[4-(1-Butylcyclopropyl)benzyl](pyridin-3-ylsulfonyl)aminomethyl}pyridin-2-ylamino)acetic acid hydrochloride]: 4.2 nM and 11 nM.
Take `CC(C)(C)c1ccc(CN(Cc2cccc(NCC(=O)O)n2)S(=O)(=O)c2cccc(F)c2)cc1` [Example 31, {6-[(4-tert-Butylbenzyl)(3-fluorobenzenesulfonyl)aminomethyl]pyridin-2-ylamino}-acetic acid hydrochloride]: the concentration for a half-maximal effect (EC50) in assay [2] worked out at 6.1 nM. In addition, the inhibition constant Ki in assay [1] worked out at 8.6 nM.
For `CCCCC(C)(C)c1ccc(CN(Cc2cccc(NCC(=O)O)n2)S(=O)(=O)c2ccc(F)cc2)s1` [Example 3, (6-{(4-Fluorobenzenesulfonyl)[5-(1,1-dimethylpentyl)thiophen-2-ylmethyl]aminomethyl}pyridin-2-ylamino)acetic acid] the same measures were 6 nM and 1.8 nM.
In turn, `CCC(CC)c1ccc(CN(Cc2cccc(NCC(=O)O)n2)S(=O)(=O)c2cccnc2)cc1` [Example 27, (6-{[4-(1-Ethylpropyl)benzyl](pyridin-3-ylsulfonyl)aminomethyl}pyridin-2-ylamino)-acetic acid] registered an EC50 in assay [2] of 6.9 nM. In other words, the single-digit nanomolar range.
`CCC1(c2ccc(CN(Cc3cccc(NCC(=O)O)n3)S(=O)(=O)c3ccc(F)cc3)cc2)CC1` [Example 14, (6-{[4-(1-Ethylcyclopropyl)benzyl](4-fluorobenzenesulfonyl)aminomethyl}pyridin-2-ylamino)acetic acid] gave a 50% effective concentration (EC50) in assay [2] of 8 nM.
The same measure, in the same setting: then `CC1(c2ccc(CN(Cc3cccc(NCC(=O)O)n3)S(=O)(=O)c3cccnc3)cc2)CC1` [Example 5, (6-{[4-(1-Methylcyclopropyl)benzyl](pyridin-3-ylsulfonyl)aminomethyl}pyridin-2-ylamino)acetic acid hydrochloride], with 2.6 nM.
On to `CCCCC(C)(C)c1ccc(CN(Cc2cccc(NCC(=O)O)n2)S(=O)(=O)c2cccs2)cc1` [Example 48, (6-{[4-(1,1-Dimethylpentyl)benzyl](thiophen-2-ylsulfonyl)aminomethyl}pyridin-2-ylamino)acetic acid], for which the inhibition constant (Ki) in assay [1] came to 6.4 nM.
